Laboratory results from patent US20240122933A1, “USE OF ISOQUINOLINE-1,5-DIAMINES FOR WOUND HEALING” (Lutris Pharma Ltd., priority 2021, published 2024).

Key:
[1] = test system: Mitogen-Activated Protein Kinase (MAPK or ERK); assay: MAPK (ERK phosphorylation) activity screen of BRaf inhibitors of Formula (I) vs. reference C-1; type: cell-based; conditions: MAPK activity of compound relative to reference compound C-1
Text: The BRaf inhibitors of this disclosure were screened for phosphorylation of ERK (MAPK).
(§1) The chemical structures, synthetic schemes and the synthetic procedures for each of the compounds of Formula (I) of this disclosure, as well as their MAPK (ERK) and the phototoxicity studies of LUT-014 were detailed in Shelach N., U.S. Patent Application Publication No. U.S.2019389862, which is incorporated herein in its entirety.

[2] = Phototoxicity: Photo-Irritation Factor (PIF) or Mean Photo Effect (MPE); type: cell-based
Procedure: The level of phototoxicity was determined by measuring a Photo-Irritation Factor (PIF) or a Mean Photo Effect (MPE) of one of the compounds of Formula (I), namely LUT-014 (R=3-(trifluoromethoxy)phenyl).
as §1

wound = conditions: given alone; cited from earlier work

Molecule | LUT/C1 MAPK Ratios [1] | other results
C#Cc1cccc(Nc2nccc3c(Nc4ncccc4-c4ncnc5nc[nH]c45)c(C)ccc23)c1 [LUT-012] | 0.7 | 
Cc1ccc2c(Nc3cc(C(C)(C)C)nn3C)nccc2c1Nc1ncccc1-c1ncnc2nc[nH]c12 [LUT-013] | 3.4 | 
Cc1ccc2c(Nc3cccc(OC(F)(F)F)c3)nccc2c1Nc1ncccc1-c1ncnc2[nH]cnc12 [LUT-014] | 2.9 | Photo-Irritation Factor (PIF) [2]: less than 2; phototoxicity [2]: low phototoxicity
Cc1ccc2c(Nc3ccc(F)c(Cl)c3)nccc2c1Nc1ncccc1-c1ncnc2[nH]cnc12 [LUT-015] | 2.1 | 
Cc1ccc2c(Nc3ccc(I)cc3F)nccc2c1Nc1ncccc1-c1ncnc2nc[nH]c12 [LUT-016] | 2.0 | 
Cc1ccc2c(Nc3ccc(Cl)c(C(F)(F)F)c3)nccc2c1Nc1ncccc1-c1ncnc2nc[nH]c12 [LUT-017] | 3.5 | 
Cc1ccc2c(Nc3cccc(S(N)(=O)=O)c3)nccc2c1Nc1ncccc1-c1ncnc2[nH]cnc12 [LUT-020] | 1.0 | 
Becaplermin (protein, UniProt P01127 82-190, looked up, recombinant human platelet-derived growth factor, FDA-approved for promoting healing of diabetic foot ulcers) Platelet-derived growth …: SLGSLTIAEPAMIAECKTRTEVFEISRRLIDRTNANFLVWPPCVEVQRCSGCCNNRNVQCRPTQVQLRPVQVRKIEIVRKKPIFKKATVTLEDHLACKCETVAAARPVT |  | effect in promoting wound healing (wound): only a modest beneficial effect
